Measured values as given in PubChem BioAssay (NCI).
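Cultured in 96-well plates, cells were exposed to test compound for 48 hours across five concentrations. At the TGI there is no net growth.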

What was measured:
Assay in all cases: inhibition of tumour cell growth, NCI panel, 48 h
786-0 renal = system: 786-0 renal
A498 renal = system: A498 renal
A549 NSCLC = system: A549 NSCLC
ACHN renal = system: ACHN renal
CAKI-1 renal = system: CAKI-1 renal
CCRF-CEM leukemia = system: CCRF-CEM leukemia
COLO 205 colon = system: COLO 205 colon
DLD-1 colon = system: DLD-1 colon
DMS 114 small cell lung = system: DMS 114 small cell lung
DMS 273 small cell lung = system: DMS 273 small cell lung
EKVX NSCLC = system: EKVX NSCLC
HCC-2998 colon = system: HCC-2998 colon
HCT-116 colon = system: HCT-116 colon
HCT-15 colon = system: HCT-15 colon
HL-60(TB) leukemia = system: HL-60(TB) leukemia
HOP-18 NSCLC = system: HOP-18 NSCLC
HOP-62 NSCLC = system: HOP-62 NSCLC
HOP-92 NSCLC = system: HOP-92 NSCLC
HT29 colon = system: HT29 colon
IGROV1 ovarian = system: IGROV1 ovarian
K-562 leukemia = system: K-562 leukemia
KM12 colon = system: KM12 colon
KM20L2 colon = system: KM20L2 colon
LOX IMVI melanoma = system: LOX IMVI melanoma
LXFL 529 NSCLC = system: LXFL 529 NSCLC
M14 melanoma = system: M14 melanoma
M19-MEL melanoma = system: M19-MEL melanoma
MALME-3M melanoma = system: MALME-3M melanoma
MOLT-4 leukemia = system: MOLT-4 leukemia
NCI-H226 lung = system: NCI-H226 lung
NCI-H23 lung = system: NCI-H23 lung
NCI-H460 lung = system: NCI-H460 lung
NCI-H522 lung = system: NCI-H522 lung
OVCAR-3 ovarian = system: OVCAR-3 ovarian
OVCAR-4 ovarian = system: OVCAR-4 ovarian
OVCAR-5 ovarian = system: OVCAR-5 ovarian
OVCAR-8 ovarian = system: OVCAR-8 ovarian
RPMI-8226 leukemia = system: RPMI-8226 leukemia
RXF 393 renal = system: RXF 393 renal
SF-268 CNS = system: SF-268 CNS
SF-295 CNS = system: SF-295 CNS
SF-539 CNS = system: SF-539 CNS
SK-MEL-2 melanoma = system: SK-MEL-2 melanoma
SK-MEL-28 melanoma = system: SK-MEL-28 melanoma
SK-MEL-5 melanoma = system: SK-MEL-5 melanoma
SK-OV-3 ovarian = system: SK-OV-3 ovarian
SN12C renal = system: SN12C renal
SNB-19 CNS = system: SNB-19 CNS
SNB-75 CNS = system: SNB-75 CNS
SNB-78 CNS = system: SNB-78 CNS
SR leukemia = system: SR leukemia
SW-620 colon = system: SW-620 colon
TK-10 renal = system: TK-10 renal
U251 CNS = system: U251 CNS
UACC-257 melanoma = system: UACC-257 melanoma
UACC-62 melanoma = system: UACC-62 melanoma
UO-31 renal = system: UO-31 renal
XF 498 CNS = system: XF 498 CNS
RXF-631 renal = system: RXF-631 renal
BT-549 breast = system: BT-549 breast
DU-145 prostate = system: DU-145 prostate
HS 578T breast = system: HS 578T breast
MCF7 breast = system: MCF7 breast
MDA-MB-231 breast = system: MDA-MB-231 breast
MDA-MB-435 = system: MDA-MB-435
MDA-N = system: MDA-N
NCI/ADR-RES ovarian = system: NCI/ADR-RES ovarian
PC-3 prostate = system: PC-3 prostate
T-47D breast = system: T-47D breast

CSc1ccc(N2C(=O)C3c4[nH]c5ccccc5c4C4CCC(C(C)(C)C)CC4C3C2=O)cc1 (stereo not drawn)
TGI (786-0 renal): 29.1 µM
TGI (A498 renal): 33.7 µM
TGI (A549 NSCLC): 33.5 µM
TGI (ACHN renal): 29.1 µM
TGI (CAKI-1 renal): 42.9 µM
TGI (CCRF-CEM leukemia): 23.5 µM
TGI (COLO 205 colon): 25.2 µM
TGI (DLD-1 colon): > 100 µM
TGI (DMS 114 small cell lung): 63.5 µM
TGI (DMS 273 small cell lung): 25.3 µM
TGI (EKVX NSCLC): 44.2 µM
TGI (HCC-2998 colon): 33.3 µM
TGI (HCT-116 colon): 18 µM
TGI (HCT-15 colon): > 100 µM
TGI (HL-60(TB) leukemia): 31.1 µM
TGI (HOP-18 NSCLC): 53.5 µM
TGI (HOP-62 NSCLC): 28.6 µM
TGI (HOP-92 NSCLC): 27.1 µM
TGI (HT29 colon): > 100 µM
TGI (IGROV1 ovarian): 32 µM
TGI (K-562 leukemia): 34.5 µM
TGI (KM12 colon): > 100 µM
TGI (KM20L2 colon): > 100 µM
TGI (LOX IMVI melanoma): 31.8 µM
TGI (LXFL 529 NSCLC): 47.5 µM
TGI (M14 melanoma): > 100 µM
TGI (M19-MEL melanoma): > 100 µM
TGI (MALME-3M melanoma): 42.9 µM
TGI (MOLT-4 leukemia): 31.7 µM
TGI (NCI-H226 lung): 42.9 µM
TGI (NCI-H23 lung): 31.9 µM
TGI (NCI-H460 lung): 34.4 µM
TGI (NCI-H522 lung): 40.4 µM
TGI (OVCAR-3 ovarian): > 100 µM
TGI (OVCAR-4 ovarian): 24.9 µM
TGI (OVCAR-5 ovarian): > 100 µM
TGI (OVCAR-8 ovarian): 27.8 µM
TGI (RPMI-8226 leukemia): > 100 µM
TGI (RXF 393 renal): 47.1 µM
TGI (SF-268 CNS): 45.4 µM
TGI (SF-295 CNS): 33.4 µM
TGI (SF-539 CNS): 43.1 µM
TGI (SK-MEL-2 melanoma): 43.1 µM
TGI (SK-MEL-28 melanoma): 35.1 µM
TGI (SK-MEL-5 melanoma): 58.5 µM
TGI (SK-OV-3 ovarian): 32.7 µM
TGI (SN12C renal): 35.9 µM
TGI (SNB-19 CNS): 45.2 µM
TGI (SNB-75 CNS): 39.2 µM
TGI (SNB-78 CNS): 31.1 µM
TGI (SR leukemia): 23.2 µM
TGI (SW-620 colon): > 100 µM
TGI (TK-10 renal): 40.5 µM
TGI (U251 CNS): 31.5 µM
TGI (UACC-257 melanoma): > 100 µM
TGI (UACC-62 melanoma): 28.9 µM
TGI (UO-31 renal): 40.7 µM
TGI (XF 498 CNS): > 100 µM

COc1ccccc1-c1csc(CCC(N)C(=O)O)n1 (stereo not drawn)
TGI (A498 renal): > 100 µM
TGI (A549 NSCLC): > 100 µM
TGI (ACHN renal): > 100 µM
TGI (CCRF-CEM leukemia): > 100 µM
TGI (DMS 114 small cell lung): > 100 µM
TGI (DMS 273 small cell lung): > 100 µM
TGI (EKVX NSCLC): > 100 µM
TGI (HCT-116 colon): > 100 µM
TGI (HL-60(TB) leukemia): > 100 µM
TGI (HOP-62 NSCLC): > 100 µM
TGI (HOP-92 NSCLC): > 100 µM
TGI (HT29 colon): > 100 µM
TGI (IGROV1 ovarian): > 100 µM
TGI (KM12 colon): > 100 µM
TGI (KM20L2 colon): > 100 µM
TGI (M14 melanoma): > 100 µM
TGI (M19-MEL melanoma): > 100 µM
TGI (MOLT-4 leukemia): > 100 µM
TGI (NCI-H23 lung): > 100 µM
TGI (NCI-H460 lung): > 100 µM
TGI (NCI-H522 lung): > 100 µM
TGI (OVCAR-5 ovarian): > 100 µM
TGI (OVCAR-8 ovarian): > 100 µM
TGI (RXF 393 renal): > 100 µM
TGI (RXF-631 renal): > 100 µM
TGI (SF-295 CNS): > 100 µM
TGI (SK-MEL-28 melanoma): > 100 µM
TGI (SK-OV-3 ovarian): > 100 µM
TGI (SNB-19 CNS): > 100 µM
TGI (SNB-78 CNS): > 100 µM
TGI (SR leukemia): > 100 µM
TGI (TK-10 renal): 75.4 µM
TGI (U251 CNS): > 100 µM
TGI (UACC-257 melanoma): > 100 µM
TGI (UACC-62 melanoma): > 100 µM
TGI (UO-31 renal): > 100 µM

O=C1OC(OC/C(Br)=C(\Br)COC2OC(=O)C(Cl)=C2Cl)C(Cl)=C1Cl (stereo not drawn)
TGI (786-0 renal): 6.4 µM
TGI (A498 renal): 34.1 µM
TGI (A549 NSCLC): 34.3 µM
TGI (ACHN renal): 13.7 µM
TGI (BT-549 breast): 6.45 µM
TGI (CAKI-1 renal): 5.54 µM
TGI (CCRF-CEM leukemia): 2.34 µM
TGI (COLO 205 colon): 4.11 µM
TGI (DU-145 prostate): 28.5 µM
TGI (EKVX NSCLC): 22.8 µM
TGI (HCC-2998 colon): 33.7 µM
TGI (HCT-116 colon): 4.56 µM
TGI (HCT-15 colon): 10.1 µM
TGI (HL-60(TB) leukemia): 1.43 µM
TGI (HOP-62 NSCLC): 29.5 µM
TGI (HOP-92 NSCLC): 10.7 µM
TGI (HS 578T breast): 31.7 µM
TGI (HT29 colon): 9.77 µM
TGI (IGROV1 ovarian): 26.3 µM
TGI (K-562 leukemia): 5.55 µM
TGI (KM12 colon): 55.7 µM
TGI (LOX IMVI melanoma): 8.29 µM
TGI (M14 melanoma): 10.4 µM
TGI (MALME-3M melanoma): 9.02 µM
TGI (MCF7 breast): 25.4 µM
TGI (MDA-MB-231 breast): 10.3 µM
TGI (MDA-MB-435): 21.4 µM
TGI (MDA-N): 14.3 µM
TGI (MOLT-4 leukemia): 2.38 µM
TGI (NCI-H226 lung): 40.8 µM
TGI (NCI-H23 lung): 14 µM
TGI (NCI-H460 lung): 33.6 µM
TGI (NCI-H522 lung): 3.24 µM
TGI (NCI/ADR-RES ovarian): 25.2 µM
TGI (OVCAR-3 ovarian): 14.5 µM
TGI (OVCAR-4 ovarian): 19.3 µM
TGI (OVCAR-5 ovarian): 30 µM
TGI (OVCAR-8 ovarian): 13.3 µM
TGI (PC-3 prostate): 27.8 µM
TGI (RPMI-8226 leukemia): 3.94 µM
TGI (RXF 393 renal): 6.1 µM
TGI (SF-268 CNS): 26.8 µM
TGI (SF-295 CNS): 34.7 µM
TGI (SF-539 CNS): 21.9 µM
TGI (SK-MEL-2 melanoma): 35.9 µM
TGI (SK-MEL-28 melanoma): 22.1 µM
TGI (SK-MEL-5 melanoma): 22.3 µM
TGI (SK-OV-3 ovarian): 43 µM
TGI (SN12C renal): 16.6 µM
TGI (SNB-19 CNS): 34.3 µM
TGI (SNB-75 CNS): 39.4 µM
TGI (SR leukemia): 2.16 µM
TGI (SW-620 colon): 9.9 µM
TGI (T-47D breast): 34.6 µM
TGI (TK-10 renal): 15.2 µM
TGI (U251 CNS): 19 µM
TGI (UACC-257 melanoma): 23.9 µM
TGI (UACC-62 melanoma): 16.9 µM
TGI (UO-31 renal): 8.12 µM
